From patent US20110112184A1, “COMPOUNDS WITH GLYCIDIC STRUCTURE ACTIVE IN THE THERAPY OF SYSTEMIC AND LOCAL INFLAMMATION” (priority 2008, published 2011)

Key:
[1] = system: HT29 cells; experiment: LPS-induced IL-8 production by HT29 intestinal epithelial cells (ELISA); assay type: cell-based, human; details: compounds 50 mg/L to 5 μg/L for 18 h, then LPS (Salmonella enterica abortus equi) 1 μg/ml 6 h
Method: FIG. 2A. LPS-induced IL-8 production by HT29 cells in the absence or presence of the indicated concentrations of compound (c) 4, 5, 6, 7, 4′, 14.
(§1) The effect of the compounds on the release of IL-8 or KC was tested upon stimulation of intestinal epithelial cells (IEC) with LPS from Salmonella enterica abortus equi. The human IEC line HT29 was used for these experiments. Cells were cultured for 18 h in medium alone or in medium additioned with different concentrations of compounds 4, 5, 6, 7, 4′ and 14 (from 50 mg/L to 5 μg/L). Then, cells were stimulated for 6 h with LPS (1 μg/ml). […] Similar experiments were performed on a human pneumocyte type II cell line (A549) using compound 4 and LPS from Pseudomonas aeruginosa.

[2] = system: A549 human pneumocytes; experiment: LPS-induced IL-8 production by A549 human pneumocytes; assay type: cell-based; details: LPS from Pseudomonas aeruginosa 100 μg/ml, compound 4 5 μg/L
Method: FIG. 2B. LPS (100 μg/ml)-induced IL-8 production by A549 human pneumocytes in the absence or presence of compound (Comp) 4 (5 μg/L).
as §1

[3] = system: mice treated with LPS; experiment: Serum KC levels after oral LPS in mice (diarrhoea model); assay type: in vivo; details: compound 4 25 μg/kg oral, then LPS 50 mg/kg oral, serum after 4 h, ELISA
Method: FIG. 3. Serum levels of cytokine KC from mice treated with LPS alone or LPS with comp 4. Untr=untreated; LPS=Mice treated with LPS alone; comp 4+LPS=Mice treated with comp 4+LPS; comp 4=Mice treated with comp 4 alone.
We tested whether oral pretreatment of mice with the compound 4 interferes with the increase in KC serum levels induced by LPS administration to mice. The dosage of compound 4 chosen for all in vivo experiments was 25 μg/kg. Mice (10/group) were treated orally with compound 4 (25 μg/kg), followed by oral treatment with LPS (50 mg/kg). Serum samples were collected after 4 h, and KC levels were evaluated by ELISA.

[4] = system: DSS-treated mice; experiment: Chronic Crohn-like disease induced by 4 cycles of DSS 2% in mice; assay type: in vivo; details: chronic model
Description: FIG. 6. Colon length in untreated mice or mice treated with DSS+comp 4. Untr=Untreated; DSS=Mice treated with DSS alone; DSS comp 4=Mice treated with DSS and comp 4;=Mice treated comp 4 alone.
FIG. 7. TNF-α content in the protein extract of the colon of untreated mice or mice treated with DSS+comp 4. Untr=Protein extract from colon of untreated mice; DSS=Protein extract from colon of mice treated with DSS alone; DSS comp 4=Protein extract from colon of mice treated with DSS+comp 4;=Protein extract from colon of mice treated with comp 4 alone.
Chronic Crohn-like disease was induced in mice by administration of DSS 2% for 4 cycles, with each cycle consisting in exposition to DSS 2% for 7 days, followed by 14 days of regular water. In mice that were administered also compound 4, last exposition of DSS was followed by p.o. administration of compound 4 at 25 μg/kg, 4 times/week for 3 weeks.
One hallmark of the chronic Crohn's disease model is the shortening of the colon.
Another parameter that was measured in this setting was the TNF-α content in the protein extract of the colon of mice. DSS 2% alone led to a dramatic increase of the TNF-α levels in the protein extract, while co-treatment with compound 4 led to normalization of these levels.

[5] = system: ovalbumin-treated C57B1/6 mice; experiment: Ovalbumin mouse model of asthma; assay type: in vivo
Description: FIG. 8. Serum levels of IL-4, IL-5 and IL-10 in untreated mice or mice treated with ovalbumin+comp 4. Untr=Untreated mice; comp 4=Mice treated with comp 4 alone; OVA=Mice treated with ovalbumin alone; comp 4+OVA=Mice treated with comp 4 and ovalbumin.
FIG. 9. BALF levels of IL-4 and IL-5 in untreated mice or mice treated with ovalbumin+compound 4. Untr=Untreated mice; comp 4=Mice treated with comp 4 alone; OVA=Mice treated with ovalbumin alone; comp 4+OVA=Mice treated with comp 4 and ovalbumin.
Compound 4 was tested in a mouse model of asthma where glucose had already been shown therapeutic efficacy. For this purpose, 10 male C57B1/6 mice were immunized intraperitoneally with 100 μg of ovalbumin (grade V) suspended in 500 μg Al(OH)3. Another group of 10 animals was treated the same way and, in addition, also with compound 4 (25 μg/kg) administered orally. One week after the first immunization, the same treatments were repeated. Two weeks after the first immunization, the first group of animals was challenged for 25 min with an aerosol of 5% (wt/vol) ovalbumin every day, for 5 consecutive days, while the other group received aerosolized ovalbumin plus compound 4 (25 μg/kg).
A hallmark of inflammatory damage to the lung is the development of high-permeability edema, characterized by high protein content in the edema fluid. Indeed, in the lungs of ovalbumin-exposed mice the protein concentration in the BALF was markedly high (0.729 mg/ml), witnessing an important damage to the lungs of these animals. On the other hand, the protein concentration in the BALF of ovalbumin+4-treated animals was similar to that of untreated animals (0.394 mg/ml).
Eventually, also the cytokine levels in the sera and BALFs of ovalbumin- or ovalbumin+compound 4-treated animals were measured. The levels of the cytokines IL-5 and IL-4, which are pivotal in the pathogenesis of asthmatic disease, were elevated in both sera and BALF from ovalbumin-treated mice, but normal in ovalbumin+4-treated animals.

[6] = system: mice treated with doxorubicin; experiment: Acute doxorubicin-induced enterocyte injury in mice; assay type: in vivo; details: doxorubicin 27 mg/kg i.p. + compound 4 25 μg/kg orally; 72 h
Method: FIG. 11. Serum levels of KC in untreated mice or mice submitted to acute treatment with doxorubicin or chronic treatment with doxorubicin and 5-fluorouracil. Untr=Untreated; Doxo 27 mg=Mice submitted to acute treatment with doxorubicin; Doxo 27 mg comp 4=Mice submitted to acute treatment with doxorubicin and concomitant p.o. administration of comp 4; Doxo cron=Mice submitted to chronic treatment with doxorubicin and 5-fluoruracil; Doxo cron comp 4=Mice submitted to chronic treatment with doxorubicin and 5-fluoruracil and concomitant p.o. administration of compound 4.
FIG. 12. Histology of the epithelium of the small intestine in mice after acute treatment with doxorubicin (DOXO) or acute treatment with doxorubicin and concomitant administration of compound 4 (comp 4+DOXO).
For the first model, doxorubicin was administered to mice by intraperitoneal injection (27 mg/kg). Some of the mice were administered at the same time compound 4 (25 μg/kg orally). Recovery of the blood for the determination of circulating KC levels and subsequent sacrifice of the animals were performed at 72 h after treatment.

Structure (SMILES): CN(C)c1cccc2c(S(=O)(=O)NCC[C@H]3O[C@H](CO)[C@@H](O)[C@H](O)[C@H]3O)cccc12 [Compound 4, 5-(Dimethylamino)-N-[2′-(α-D-glucopyranosyl)ethyl]-1-naphthalenesulphonamide]
- production of IL-8 induced by LPS [1]: significantly inhibited
- LPS-induced IL-8 production [2]: significantly inhibited
- Serum KC levels [3]: comparable to those of untreated mice
- Intestinal transmembrane resistance ([4]; 4 cycles DSS 2% + compound 4 25 μg/kg p.o. 4 times/week for 3 weeks): 47 Ω × cm^2
- TNF-α content in the protein extract of the colon ([4]; DSS 2% + compound 4): normalization
- mean length of the colon ([4]; DSS 2% + compound 4): 11.55 cm
- Protection against ovalbumin inflammation ([5]; oral administration of compound 4 during aerosol ovalbumin challenge (data not shown)): protects the ovalbumin inflammation analogously to the aerosol challenge
- IL-4 levels in BALF ([5]; ovalbumin + compound 4): normal
- IL-4 levels in sera ([5]; ovalbumin + compound 4): normal
- IL-5 levels in BALF ([5]; ovalbumin + compound 4): normal
- IL-5 levels in sera ([5]; ovalbumin + compound 4): normal
- IL-10 levels in sera ([5]; ovalbumin + compound 4): greatly increased
- protein concentration in the BALF ([5]; ovalbumin + compound 4 (25 μg/kg)): 0.394 mg/mL
- eosinophils in BALF ([5]; ovalbumin + compound 4 (25 μg/kg; oral at immunization, aerosol at challenge)): 127 cells/ml
- Histology of the epithelium of the small intestine [6]: normal morphology
- circulating KC levels [6]: strongly reduced
